Patent US20230058623A1, “NOVEL HETEROARYL-TRIAZOLE COMPOUNDS AS PESTICIDES” (Bayer Aktiengesellschaft, priority 2019, published 2023)

How the values were obtained:
[1] = test system: two spotted spidermite (Tetranychus urticae); assay: Tetranychus urticae spray test OP-resistant; format: in vivo; conditions: foliar, 144 h, application rate 100 g/ha, after 6 days, French bean leaf disks
Procedure: Tetranychus urticae—Spray Test OP-Resistant
To produce a suitable preparation of active compound, 1 part by weight of active compound is mixed with the stated amount of solvents and is diluted with water, containing an emulsifier concentration of 1000 ppm, to the desired concentration. Further test concentrations are prepared by dilution with emulsifier containing water.
French bean (Phaseolus vulgaris) leaf disks infected with all instars of the two spotted spidermite (Tetranychus urticae) are sprayed with a preparation of the active ingredient of the desired concentration.
After 6 days mortality in % is determined. 100% means all spider mites have been killed and 0% means none of the spider mites have been killed.

[2] = test system: adult Blattella germanica strain PAULINIA; assay: whole plant or invertebrate; format: in vivo; conditions: read-out: efficacy (mortality)
Procedure: Blattella germanica Test (BLTTGE Surface Treatment & Contact Assay)
Solvent: Aceton+2000 ppm rapeseed oil methyl ester (RME) In order to produce a sufficient, active ingredient containing solution it is necessary to solve the test compound in the solvent-mix (acetone at 2 mg/ml/RME 2000 ppm). This solution is pipetted onto a glazed tile and after evaporation of the acetone, adult animals of the species Blattella germanica strain PAULINIA are placed onto the dried surface. The exposure time is 30 minutes.
Mortality in percent (%) is determined 24 hours after contact of the insects to the treated surface. 100% mortality means that all tested insects are dead, whereas 0% means that no insect died.

SMILES	mortality at 100 g/ha [1] [%]	mortality at 20 mg/m2 [2] [%]
CC1CN(C(=O)c2ccc(-n3ncnc3[C@H](C)NC(=O)c3cc(C(F)(F)F)cc(C(F)(F)F)c3)nc2)CC(C)O1 (some centres unmarked) [Example I-5]	90	–
C[C@H](NC(=O)c1cc(C(F)(F)F)cc(C(F)(F)F)c1)c1ncnn1-c1ccc(C(=O)N2CCOCC2)cn1 [Example I-2]	90	–
Cc1nc([C@H](C)NC(=O)c2cc(C(F)(F)F)cc(C(F)(F)F)c2)n(-c2ccc(C(=O)N3CCOCC3)cn2)n1 [Example I-9, N-[(1S)-1-{3-methyl-1-[5-(morpholin-4-ylcarbonyl)pyridin-2-yl]-1H-1,2,4-triazol-5-yl}ethyl]-3,5-bis(trifluoromethyl)benzamide]	100	80 to 100
C[C@H](NC(=O)c1cc(C(F)(F)F)cc(C(F)(F)F)c1)c1ncnn1-c1ccc(C(=O)N2CCCC2)cn1 [Example I-11]	100	–
